Measurements reported in ChEMBL document CHEMBL4418493, “N-hydroxyformamide compounds and compositions comprising them for use as BMP1, TLL1 and/or TLL2 inhibitors” (2018).

Legend:
[1] = Reduction in PICP levels in human cardiac fibroblasts incubated for 24 to 48 hrs by ELISA; assay type: functional
[2] = Drug metabolism in heparinized pooled human plasma at pH 7.5 assessed as formation of (S)-2-(2-ethoxy-4-(5-((((R)-2-((R)-1-(N-hydroxyformamido)propyl)heptanamido)methyl) carbamoyl)furan-2-yl)benzamido)succinic acid at 100 to 2000 ng/ml incubated up to 4 or 24 hrs by LC-MS/MS analysis; assay type: ADME, cell-free; details: pH 7.5, 24 h
[3] = Reduction in mature collagen deposition levels in human cardiac fibroblasts incubated for 24 to 48 hrs by immunostaining based assay; assay type: functional
[4] = Drug metabolism in heparinized pooled human plasma at pH 7.5 assessed as formation of (3-ethoxy-5-(5-((((R)-2-((R)-1-(N-hydroxyformamido)propyl)heptanamido)methyl)carbamoyl) furan-2-yl)phenyl)phosphonic acid at 100 to 2000 ng/ml incubated up to 4 or 24 hrs by LC-MS/MS analysis; assay type: ADME, cell-free; details: pH 7.5, 24 h
[5] = Drug metabolism in heparinized pooled human plasma at pH 7.5 assessed as formation of (S)-2-(2-(carboxymethoxy)-4-(5-((((R)-2-((R)-1-(N-hydroxyformamido)propyl)heptanamido)methyl)carbamoyl)furan-2-yl)benzamido)succinic acid at 100 to 2000 ng/ml incubated up to 4 or 24 hrs by LC-MS/MS analysis; assay type: ADME, cell-free; details: pH 7.5, 24 h

## CCCCC[C@@H](C(=O)NCNC(=O)c1ccc(-c2ccc(C(=O)N[C@@H](CC(=O)O)C(=O)O)c(OCC)c2)o1)[C@@H](CC)N(C=O)OC(=O)c1ccc(-n2cnnc2)cc1
[1]
  IC50: < 3.98 µM
[2]
  Drug metabolism: Metabolite_Detected
[3]
  IC50: < 1000 nM

## CCCCC[C@@H](C(=O)NCNC(=O)c1ccc(-c2ccc(C(=O)N[C@@H](CC(=O)O)C(=O)O)c(OCC)c2)o1)[C@@H](CC)N(C=O)OC(=O)c1ccc(OC)cc1OC(F)(F)F
[1]
  IC50: < 3.98 µM
[2]
  Drug metabolism: Metabolite_Detected
[3]
  IC50: < 1000 nM

## CCCCC[C@@H](C(=O)NCNC(=O)c1ccc(-c2cc(OCC)cc(P(=O)(O)O)c2)o1)[C@@H](CC)N(C=O)OC(=O)Nc1ccccc1
[1]
  IC50: < 3.98 µM
[4]
  Drug metabolism: Metabolite_Detected

## CCCCC[C@@H](C(=O)NCNC(=O)c1ccc(-c2cc(OCC)cc(P(=O)(O)O)c2)o1)[C@@H](CC)N(C=O)OC(=O)c1ccc(CN2CCOCC2)cc1C
[1]
  IC50: < 3.98 µM
[4]
  Drug metabolism: Metabolite_Detected

## CCCCC[C@@H](C(=O)NCNC(=O)c1ccc(-c2cc(OCC)cc(P(=O)(O)OCOC(=O)C(C)C)c2)o1)[C@@H](CC)N(O)C=O
[4]
  Drug metabolism: Metabolite_Detected

## CCCCC[C@@H](C(=O)NCNC(=O)c1ccc(-c2cc(OCC)cc(P(=O)(O)O)c2)o1)[C@@H](CC)N(C=O)OC(=O)c1ccc2c(c1)OCCN2C
[1]
  IC50: < 3.98 µM
[4]
  Drug metabolism: Metabolite_Detected

## CCCCC[C@@H](C(=O)NCNC(=O)c1ccc(-c2ccc(C(=O)N[C@@H](CC(=O)O)C(=O)O)c(OCC)c2)o1)[C@@H](CC)N(C=O)OC(=O)c1ccccc1C
[1]
  IC50: < 3.98 µM
[2]
  Drug metabolism: Metabolite_Detected
[3]
  IC50: < 1000 nM

## CCCCC[C@@H](C(=O)NCNC(=O)c1ccc(-c2cc(OCC)cc(P(=O)(O)O)c2)o1)[C@@H](CC)N(C=O)OC(=O)c1ccc(CN2CCOCC2)cc1
[1]
  IC50: < 3.98 µM
[4]
  Drug metabolism: Metabolite_Detected

## CCCCC[C@@H](C(=O)NCNC(=O)c1ccc(-c2cc(OCC)cc(P(=O)(O)O)c2)o1)[C@@H](CC)N(C=O)OC(=O)C(CC)CC
[1]
  IC50: < 3.98 µM
[4]
  Drug metabolism: Metabolite_Detected

## CCCCC[C@@H](C(=O)NCNC(=O)c1ccc(-c2ccc(C(=O)N[C@@H](CC(=O)O)C(=O)O)c(OCC)c2)o1)[C@@H](CC)N(C=O)OC(=O)NC(C)(C)C
[1]
  IC50: < 3.98 µM
[2]
  Drug metabolism: Metabolite_Detected
[3]
  IC50: < 1000 nM

## CCCCC[C@@H](C(=O)NCNC(=O)c1ccc(-c2cc(OCC)cc(P(=O)(O)O)c2)o1)[C@@H](CC)N(C=O)OC(=O)c1ccccc1O
[1]
  IC50: < 3.98 µM
[4]
  Drug metabolism: Metabolite_Detected

## CCCCC[C@@H](C(=O)NCNC(=O)c1ccc(-c2ccc(C(=O)N[C@@H](CC(=O)O)C(=O)O)c(OCC)c2)o1)[C@@H](CC)N(C=O)OC(=O)NC(C)(C)c1ccccc1
[1]
  IC50: < 3.98 µM
[2]
  Drug metabolism: Metabolite_Detected
[3]
  IC50: < 1000 nM

## CCCCC[C@@H](C(=O)NCNC(=O)c1ccc(-c2cc(OCC)cc(P(=O)(O)O)c2)o1)[C@@H](CC)N(C=O)OC(=O)c1ccc2c(c1)N(C)CCO2.N.N
[1]
  IC50: < 3.98 µM
[4]
  Drug metabolism: Metabolite_Detected

## CCCCC[C@@H](C(=O)NCNC(=O)c1ccc(-c2ccc(C(=O)N[C@@H](CC(=O)O)C(=O)O)c(OCC)c2)o1)[C@@H](CC)N(C=O)OC(=O)c1ccc(O)cc1
[1]
  IC50: < 3.98 µM
[2]
  Drug metabolism: Metabolite_Detected
[3]
  IC50: < 1000 nM

## CCCCC[C@@H](C(=O)NCNC(=O)c1ccc(-c2ccc(C(=O)N[C@@H](CC(=O)O)C(=O)O)c(OCC)c2)o1)[C@@H](CC)N(C=O)OC(=O)c1ccc(OC)cc1OC
[1]
  IC50: < 3.98 µM
[2]
  Drug metabolism: Metabolite_Detected
[3]
  IC50: < 1000 nM

## CCCCC[C@@H](C(=O)NCNC(=O)c1ccc(-c2cc(OCC)cc(P(=O)(O)O)c2)o1)[C@@H](CC)N(C=O)OC(=O)c1ccc(N2CCCC2=O)cc1.N.N
[1]
  IC50: < 3.98 µM
[4]
  Drug metabolism: Metabolite_Detected

## CCCCC[C@@H](C(=O)NCNC(=O)c1ccc(-c2ccc(C(=O)N[C@@H](CC(=O)O)C(=O)O)c(OCC)c2)o1)[C@@H](CC)N(C=O)OC(=O)c1ccccc1C(C)C
[1]
  IC50: < 3.98 µM
[2]
  Drug metabolism: Metabolite_Detected
[3]
  IC50: < 1000 nM

## CCCCC[C@@H](C(=O)NCNC(=O)c1ccc(-c2cc(OCC)cc(P(=O)(O)O)c2)o1)[C@@H](CC)N(C=O)OC(=O)c1ccc(OC)cc1C(C)C
[1]
  IC50: < 3.98 µM
[4]
  Drug metabolism: Metabolite_Detected

## CCCCC[C@@H](C(=O)NCNC(=O)c1ccc(-c2cc(OCC)cc(P(=O)(O)O)c2)o1)[C@@H](CC)N(C=O)OC(=O)c1ccc(OC)cc1C.N.N
[1]
  IC50: < 3.98 µM
[4]
  Drug metabolism: Metabolite_Detected

## CCCCC[C@@H](C(=O)NCNC(=O)c1ccc(-c2cc(OCC)cc(P(=O)(O)O)c2)o1)[C@@H](CC)N(C=O)OC(=O)NC(C)(C)C
[1]
  IC50: < 3.98 µM
[4]
  Drug metabolism: Metabolite_Detected

## CCCCC[C@@H](C(=O)NCNC(=O)c1ccc(-c2ccc(C(=O)N[C@@H](CC(=O)O)C(=O)O)c(OCC)c2)o1)[C@@H](CC)N(C=O)OC(=O)c1ccc(OC)cc1F
[1]
  IC50: < 3.98 µM
[2]
  Drug metabolism: Metabolite_Detected
[3]
  IC50: < 1000 nM

## CCCCC[C@@H](C(=O)NCNC(=O)c1ccc(-c2ccc(C(=O)N[C@@H](CC(=O)O)C(=O)O)c(OCC)c2)o1)[C@@H](CC)N(C=O)OC(=O)c1cccc(-n2cccc2)c1
[1]
  IC50: < 3.98 µM
[2]
  Drug metabolism: Metabolite_Detected
[3]
  IC50: < 1000 nM

## CCCCC[C@@H](C(=O)NCNC(=O)c1ccc(-c2cc(OCC)cc(P(=O)(O)OCc3oc(=O)oc3C)c2)o1)[C@@H](CC)N(O)C=O
[4]
  Drug metabolism: Metabolite_Detected

## CCCCC[C@@H](C(=O)NCNC(=O)c1ccc(-c2ccc(C(=O)N[C@@H](CC(=O)O)C(=O)O)c(OCC)c2)o1)[C@@H](CC)N(C=O)OC(=O)c1ccc(OC)cc1C(F)(F)F
[1]
  IC50: < 3.98 µM
[2]
  Drug metabolism: Metabolite_Detected
[3]
  IC50: < 1000 nM

## CCCCC[C@@H](C(=O)NCNC(=O)c1ccc(-c2cc(OCC)cc(P(=O)(O)O)c2)o1)[C@@H](CC)N(C=O)OC(=O)c1ccc(N2CCCC2)c(F)c1.N.N
[1]
  IC50: < 3.98 µM
[4]
  Drug metabolism: Metabolite_Detected

## CCCCC[C@@H](C(=O)NCNC(=O)c1ccc(-c2ccc(C(=O)N[C@@H](CC(=O)O)C(=O)O)c(OCC)c2)o1)[C@@H](CC)N(C=O)OC(=O)c1ccc(N2CCCC2)c(F)c1.N.N
[1]
  IC50: < 3.98 µM
[2]
  Drug metabolism: Metabolite_Detected
[3]
  IC50: < 1000 nM

## CCCCC[C@@H](C(=O)NCNC(=O)c1ccc(-c2cc(OCC)cc(P(=O)(O)O)c2)o1)[C@@H](CC)N(C=O)OC(=O)c1ccc(N2CCOCC2)cc1C.N.N
[1]
  IC50: < 3.98 µM
[4]
  Drug metabolism: Metabolite_Detected

## CCCCC[C@@H](C(=O)NCNC(=O)c1ccc(-c2ccc(C(=O)N[C@@H](CC(=O)O)C(=O)O)c(OCC)c2)o1)[C@@H](CC)N(C=O)OC(=O)OC(C)(C)C
[1]
  IC50: < 3.98 µM
[2]
  Drug metabolism: Metabolite_Detected
[3]
  IC50: < 1000 nM

## CCCCC[C@@H](C(=O)NCNC(=O)c1ccc(-c2ccc(C(=O)N[C@@H](CC(=O)O)C(=O)O)c(OCC)c2)o1)[C@@H](CC)N(C=O)OC(=O)c1c(C)ccnc1C
[1]
  IC50: < 3.98 µM
[2]
  Drug metabolism: Metabolite_Detected
[3]
  IC50: < 1000 nM

## CCCCC[C@@H](C(=O)NCNC(=O)c1ccc(-c2cc(OCC)cc(P(=O)(O)O)c2)o1)[C@@H](CC)N(C=O)OC(=O)NC(C)C
[1]
  IC50: < 3.98 µM
[4]
  Drug metabolism: Metabolite_Detected

## CCCCC[C@@H](C(=O)NCNC(=O)c1ccc(-c2ccc(C(=O)N[C@@H](CC(=O)O)C(=O)O)c(OCC)c2)o1)[C@@H](CC)N(C=O)OC(=O)c1ccc(C(F)(F)F)cc1C
[1]
  IC50: < 3.98 µM
[2]
  Drug metabolism: Metabolite_Detected
[3]
  IC50: < 1000 nM

## CCCCC[C@@H](C(=O)NCNC(=O)c1ccc(-c2ccc(C(=O)N[C@@H](CC(=O)OCOC(=O)C(C)C)C(=O)OCOC(=O)C(C)C)c(OCC)c2)o1)[C@@H](CC)N(O)C=O
[1]
  IC50: < 3.98 µM
[2]
  Drug metabolism: Metabolite_Detected
[3]
  IC50: < 1000 nM

## CCCCC[C@@H](C(=O)NCNC(=O)c1ccc(-c2cc(OCC)cc(P(=O)(O)O)c2)o1)[C@@H](CC)N(C=O)OC(=O)c1c(C)cccc1OCOP(=O)(O)O.N.N.N.N
[1]
  IC50: < 3.98 µM
[4]
  Drug metabolism: Metabolite_Detected

## CCCCC[C@@H](C(=O)NCNC(=O)c1ccc(-c2cc(OCC)cc(P(=O)(O)O)c2)o1)[C@@H](CC)N(C=O)OC(=O)c1ccc(N2CCCC2)cc1.N.N
[1]
  IC50: < 3.98 µM
[4]
  Drug metabolism: Metabolite_Detected

## CCCCC[C@@H](C(=O)NCNC(=O)c1ccc(-c2ccc(C(=O)N[C@@H](CC(=O)O)C(=O)O)c(OCC(=O)O)c2)o1)[C@@H](CC)N(C=O)OC(=O)C(CC)CC
[1]
  IC50: < 3.98 µM
[5]
  Drug metabolism: Metabolite_Detected
[3]
  IC50: < 1000 nM
